From US10195156B2, “Compounds and compositions for intracellular delivery of agents” (ModernaTX, Inc., priority 2015, dated 2019)
Like-named read-outs stand apart in the source and are kept apart here.

Tests used:
[1] = Encapsulation efficiency of RNA (QUANT-IT RIBOGREEN RNA assay); assay type: physicochemical
Outline: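 Nanoparticle samples diluted to ~5 μg/mL RNA in TE buffer (pH 7.5), incubated with or without 2% Triton X-100 solution at 37 °C for 15 min, then RiboGreen added. Fluorescence read at ~480/520 nm, blank-subtracted; free RNA % = intact over Triton-disrupted signal.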

LDL-c = assay: LDL levels in LDLr−/− mice after mRNA encoding the LDL receptor; assay type: in vivo, LDLR knockout mice; details: Mus musculus; Table 7b; LDLr−/− mice, 0.5 mpk, LDLr; read-out: LDL levels lipid/untreated LDLr−/− mice 0.5 mpk, LDLr
[2] = Particle size and polydispersity index of nanoparticle compositions (Zetasizer Nano ZS); assay type: physicochemical
Outline: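 In 1×PBS, the compositions were sized on a Zetasizer Nano ZS, which also reported their polydispersity index.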

[3] = pKa of nanoparticle compositions; assay type: physicochemical
[4] = Lipid levels in liver and spleen 48 hours after administration; assay type: in vivo, rats; details: 48 hours after administration; for concentration at 48 h: Sprague-Dawley, rat, intravenous
Method: Formulations were administered intravenously to rats (n=3 or 6) at a dosage of 0.2 mg/kg or 0.5 mg/kg (mpk) and hEPO levels measured at 3, 6, and 24 hour time points. After the 48 hour time point, livers and spleens were harvested and frozen.
The amount of lipid in the liver and spleen 48 hours after administration of a nanoparticle composition was also measured. […] In contrast, approximately 60% of doses including MC3 or Compound 22 remained in the liver after 48 hours. Less than 3% of the dose remained in the spleen for each composition tested.

hEPO mRNA expression = assay: Expression of hEPO in rats after intravenous administration; assay type: in vivo; details: for hEPO (pg/mL) 3 hours / hEPO (pg/mL) 6 hours / hEPO (pg/mL) 24 hours: Table 6, 0.2 mg/kg or 0.5 mg/kg; for Lipid/MC3 hEPO S.D. (rats): hEPO expression relative to MC3, S.D. rats, intravenous
Method: PBS (phosphate buffered saline) is used as control.
Formulations were prepared according to Table 5 and included mRNA encoding hEPO.
[…] After the 48 hour time point, livers and spleens were harvested and frozen.

[5] = Concentration of RNA in nanoparticle composition (ultraviolet-visible spectroscopy); assay type: physicochemical; details: Table 5; hEPO mRNA; 40:20:38.5:1.5 Lipid:DOPE:Chol:PEG-DMG
Method: Ultraviolet-visible spectroscopy can be used to determine the concentration of a therapeutic and/or prophylactic agent (e.g., RNA) in nanoparticle compositions. 100 μL of the diluted formulation in 1×PBS is added to 900 μL of a 4:1 (v/v) mixture of methanol and chloroform. After mixing, the absorbance spectrum of the solution is recorded, for example, between 230 nm and 330 nm on a DU 800 spectrophotometer (Beckman Coulter, Beckman Coulter, Inc., Brea, Calif.). The concentration of therapeutic and/or prophylactic agent in the nanoparticle composition can be calculated based on the extinction coefficient of the therapeutic and/or prophylactic agent used in the composition and on the difference between the absorbance at a wavelength of, for example, 260 nm and the baseline value at a wavelength of, for example, 330 nm.

[6] = system: modified luciferase expression; assay: Expression of Luc in different organs (liver, lung, spleen, femur) 6 hours after intravenous administration; assay type: in vivo; details: i.v., 0.5 mpk
Method: The efficacy of the nanoparticle compositions presented in Tables 1, 1a, 17-1, 19-1, 20-1 and 21-1 was further evaluated by measuring the expression of modified luciferase in the liver, lung, spleen, and femur upon administration of a given composition. Formulations were administered intravenously to mice (n=3) at a dosage of 0.5 mpk and bioluminescence measured after 6 hours. The standard MC3 formulation and a PBS control were also tested.

IP-10 = assay: Cytokine production induced by sample formulations: IP-10; assay type: in vivo; details: Table 4; mice, i.v., 0.5 mpk, 6 hours; in pg/mL (unit assumed)
Outline: (§1)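 Mice received nanoparticle formulations intravenously at 0.5 mpk, with standard MC3 formulation and PBS as controls. Cytokine concentrations were measured 6 hours after dosing.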

[7] = system: luciferase (Luc) mRNA expression; assay: Expression of Luc induced by sample formulations, whole-body bioluminescence after intravenous administration; assay type: in vivo; details: Table 2, mice, i.v., 0.5 mg/kg
Outline: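 Mice (n=6) dosed intravenously with Luc mRNA nanoparticle formulations at 0.5 mg/kg. Whole-body bioluminescence measured at 3, 6 and 24 h. Standard MC3 formulation and PBS control run alongside.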

IL-6 = assay: Cytokine production induced by sample formulations: IL-6; assay type: in vivo; details: Table 4; mice, i.v., 0.5 mpk, 6 hours; in pg/mL (unit assumed)
Outline: as §1

[8] = Table 1, rows without footnote mark
[9] = Table 1, rows without footnote mark (lipid:DOPE:cholesterol:PEG-DMG 40:20:38.5:1.5, Luc mRNA; MC3 standard formulation)
[10] = Table 1, # formulated with hEPO mRNA
[11] = Table 5, hEPO mRNA, 40:20:38.5:1.5 Lipid:DOPE:Chol:PEG-DMG
[12] = liver, read-out: Lipid in liver
[13] = spleen, read-out: Lipid in spleen

Compound | EE (%) [1, 8] [%] | response vs control in vivo at 0.5 mg/kg (LDL-c) [%] | PDI [2, 8] | Size (nm) [2, 9] [nm] | pKa [3, 8] | EE (%) [1, 10] [%] | EE (%) [1, 11] [%] | concentration at 48 h [4, 12] [ng/g] | concentration at 48 h [4, 13] [ng/g] | % remaining dose in liver ([4]; liver) [%] | % remaining dose in spleen ([4]; spleen) [%] | hEPO (pg/mL) 3 hours (hEPO mRNA expression; rats, i.v.) [pg/mL] | hEPO (pg/mL) 6 hours (hEPO mRNA expression; rats, i.v.) [pg/mL] | hEPO (pg/mL) 24 hours (hEPO mRNA expression; rats, i.v.) [pg/mL] | Lipid/MC3 hEPO S.D. (rats) (hEPO mRNA expression) | PDI [2, 10] | Size (nm) [2, 10] [nm] | PDI [2, 11] | Size (nm) [2, 11] [nm] | Conc. [5] [µg/mL] | further results
CCCCCCCCCCCCN(CCCCCCCCCCCC)CCN(CCCCCCCCC)CC(=O)N1CCN(C(=O)CN(CCCCCCCCC)CCCCCCCCC)CC1 [Compound 6, 2-((2-(Didodecylamino)ethyl)(nonyl)amino)-1-(4-(dinonylglycyl)piperazin-1-yl)ethan-1-one] | 98.9 | 91 | 0.160 | 81.4 | 6.62 | – | – | – | – | – | – | – | – | – | – | – | – | – | – | – | –
CCCCCCCCCCCCN(CCCCCCCCCCCC)CCN(CCCCCCCCCCCC)CC(=O)N1CCN(C(=O)CN(CCCCCCCCC)CCCCCCCCC)CC1 [Compound 7, 2-((2-(Didodecylamino)ethyl)(dodecyl)amino)-1-(4-(dinonylglycyl)piperazin-1-yl)ethan-1-one] | 99.1 | 63 | 0.130 | 85.1 | 6.94 | – | – | – | – | – | – | – | – | – | – | – | – | – | – | – | –
CCCCCCCCCCCCN(CCCCCCCCCCCC)CC(=O)N1CCN(C(=O)CN(CCCCCCCCC)CCN(CCCCCCCCC)CCCCCCCCC)CC1 [Compound 8, 2-(Didodecylamino)-1-(4-(N-(2-(dinonylamino)ethyl)-N-nonylglycyl)piperazin-1-yl)ethan-1-one] | 98.5 | 66 | 0.110 | 83.3 | 6.87 | – | – | – | – | – | – | – | – | – | – | – | – | – | – | – | –
CCCCCCCCCCCCN(CCCCCCCCCCCC)CC(=O)N1CCN(C(=O)CN(CCCCCCCCCCCC)CCN(CCCCCCCCC)CCCCCCCCC)CC1 [Compound 9, 2-(Didodecylamino)-1-(4-(N-(2-(dinonylamino)ethyl)-N-dodecylglycyl)piperazin-1-yl)ethan-1-one] | 99.5 | 87 | 0.170 | 78.0 | 6.76 | – | – | – | – | – | – | – | – | – | – | – | – | – | – | – | –
CCCCCCCCCCCCN(CCCCCCCCCCCC)CCN(CCCCCCCCC)CC(=O)N1CCN(C(=O)CN(CCCCCCCCCCCC)CCCCCCCCCCCC)CC1 [Compound 10, 2-(Didodecylamino)-1-(4-(N-(2-(didodecylamino)ethyl)-N-nonylglycyl)piperazin-1-yl)ethan-1-one] | 99.2 | 98 | 0.130 | 81.3 | 6.58 | – | – | – | – | – | – | – | – | – | – | – | – | – | – | – | –
CCCCCCCCCCCCN(CCCCCCCCCCCC)CCN(CCCCCCCCCCCC)CCN1CCN(CCN(CCCCCCCCCCCC)CCCCCCCCCCCC(=O)OC)CC1 [Compound 15, Methyl 12-((2-(4-(2-((2-(didodecylamino)ethyl)(dodecyl)amino)ethyl)piperazin-1-yl)ethyl)(dodecyl)amino)dodecanoate] | – | – | – | – | – | 90.2 | 90.15 | 3070 | 971 | 4.22 | 0.089 | 103773 | 125320 | 67965 | 0.095 | 0.120 | 100.3 | 0.12 | 100.3 | 713.00 | pKa [3, 10]: 6.32; pKa [3, 11]: 6.323
CCCCCCCCCCCCN(CCCCCCCCCCCC)CCN(CCCCCCCCCCCC)CCN1CCN(CCN(CCCCCCCCCCCC(=O)OC)CCCCCCCCCCCC(=O)OC)CC1 [Compound 16, Dimethyl 12,12′-((2-(4-(2-((2-(didodecylamino)ethyl)(dodecyl)amino)ethyl)piperazin-1-yl)ethyl)azanediyl)didodecanoate] | – | – | – | – | – | 98.2 | 98.22 | 597 | 293 | 0.79 | 0.026 | 35387 | 41720 | 17184 | 0.031 | 0.140 | 77.4 | 0.14 | 77.4 | 665.11 | hEPO expression in rats, comparison (in words) (hEPO mRNA expression; rats, i.v., 0.2 or 0.5 mg/kg, Tables 6, 7a): lowest hEPO expression at each time point; pKa [3, 10]: 6.28; pKa [3, 11]: 6.282
CCCCCCCCCCCCCCN(CCCCCCCCCCCCCC)CCN1CCN(CCN(CCCCCCCCC)CCN(CCCCCCCCC)CCCCCCCCC)CC1 [Compound 20, N^1-(2-(4-(2-(Ditetradecylamino)ethyl)piperazin-1-yl)ethyl)-N^1,N^2,N^2-trinonylethane-1,2-diamine] | 84.2 | – | 0.150 | 106.4 | 6.12 | – | 94.39 | – | – | – | – | – | 227420 | – | – | – | – | 0.14 | 114.5 | 1264.28 | Total Flux Femur ([6]; Table 3, mice, femur): 8.91E+06; Total Flux Liver ([6]; Table 3, mice, liver): 1.42E+10; Total Flux Lung ([6]; Table 3, mice, lung): 1.46E+08; Total Flux Spleen ([6]; Table 3, mice, spleen): 6.11E+07; total flux in organs, rank or organ comparison (in words) ([6]; mice, each organ or overall): highest total flux; IP-10 (IP-10): 2080; Total Flux 3 hours ([7]; 3 hours): 1.00E+11; Total Flux 6 hours ([7]; 6 hours): 1.11E+11; Total Flux 24 hours ([7]; 24 hours): 4.60E+09; IL-6 (IL-6): 127
CCCCCCCCCCCCN(CCCCCCCCCCCC)CCN(CCCCCCCCCCCC)CCN1CCN(CCN(CCCCCCCC)CCCCCCCC)CC1 [Compound 22, N^1-(2-(4-(2-(Dioctylamino)ethyl)piperazin-1-yl)ethyl)-N^1,N^2,N^2-tridodecylethane-1,2-diamine] | – | – | – | – | – | 98.3 | 98.29 | 36800 | 3890 | 58.7 | 0.41 | 181627 | 267680 | 75571 | 0.20 | 0.130 | 75.4 | 0.13 | 75.4 | 564.97 | dose remaining in the liver after 48 hours ([4]; liver): approximately 60%; pKa [3, 10]: 6.15; pKa [3, 11]: 6.153
